Test system: potato dihydroorotase
Assay: Measurement of the dihydroorotase activity (dihydroorotate-dehydrogenase-coupled photometric assay at 340 nm, or colorimetric assay)
Assay type: biochemical, Solanum tuberosum
Conditions: activity measured in the assay systems described; recombinant enzyme expressed in E. coli
From the text: The enzymatic detection developed to date for measuring the dihydroorotase activity by the method of Mazus and Buchowicz, (Acta Biochimica Polonica (1968), 15(4), 317-325) is based on detecting the orotate formed at 280 nm in a dihydroorotate-dehydrogenase-coupled reaction mixture. Prerequisite for doing so is a high activity of the auxiliary enzyme, viz. dihydroorotate dehydrogenase. […] In order to be able to carry out a mass screening, the specific dihydroorotate dehydrogenase activity must be at least ten times higher than is the case in the commercial preparation. […] The enzyme activity was determined in a photometric assay by measurement in a photometer (Uvikon 933, Kontron) at 340 nm. […] In each case […] of the resulting enzyme fraction was made up with buffer to […] and measured against a reference cell containing […] reaction buffer and 100 ml of a protein homogenate of untransformed E. coli culture. […] Identical quantities of total protein were employed for measuring the untransformed or transformed E. coli extracts. […] Alternatively, the dihydroorotase may also be measured in a less sensitive colorimetric assay by the method of Prescott and Jones (Anal. Biochem. (1969) 32, 408-419) without being coupled to dihydroorotate dehydrogenase. […]

| Compound | potato dihydroorotase activity |
| --- | --- |
| O=C1NC(C(=O)O)=CC(C(=O)O)N1 (centres unmarked) [2-oxo-1,2,3,6-tetrahydropyrimidine-4,6-dicarboxylate] | can be reduced |
| O=C1NC(=S)C[C@@H](C(=O)O)N1 [6-L-thiodihydroorotate] | can be reduced |
